According to patent US12251422B2, “Compositions and methods for treating neurological and other disorders” (Rush University Medical Center, priority 2018, dated 2025):

Tests used:
[1] = system: NF-κB; assay: NF-κB activation by EMSA in primary microglia from WT mice; type: cell-based, mouse; conditions: peptide 1 h, 1 μM fibrillar Aβ1-42 for 1 h
Protocol: FIG. 16 (A-F). […] Primary microglia isolated from WT (A) and TLR2 (−/−) (B) mice were treated with different concentrations of wtTIDM peptide for 1 h followed by stimulation with 1 μM fibrillar Aβ1-42 under serum-free condition. After 1 h of stimulation, the activation of NF-κB was monitored by EMSA. WT (C & D) and TLR2 (−/−) (E & F) microglia were treated with different concentrations of wtTIDM and mTIDM peptides for 1 h followed by stimulation with 1 μM fibrillar Aβ1-42 under serum-free condition. After 18 h of stimulation, levels of TNFα (C & E) and IL-1β (D & F) were monitored in supernatants by ELISA (n=2 replicates/condition in 3 independent experiments). ap<0.001 vs control; bp<0.001 vs stimuli by two-sample t-tests.
Nuclear extracts were isolated and EMSA was carried out as described before (22, 23).

[2] = molecular target: T1, association between TLR2 and MyD88 (Mus musculus, UniProt Q9QUN7); assay: MyD88 immunoprecipitation / TLR2 western blot in BV-2 microglial cells; type: cell-based; conditions: BV-2 cells, peptides preincubated 1 h, 1 μM fibrillar Aβ1-42 for 1 h, serum-free
T1 construct: disrupt the physical association between endogenous TLR2 and MyD88; endogenous in cells; host or cells: BV-2 microglial cells
T1 sequence (Q9QUN7 25-784): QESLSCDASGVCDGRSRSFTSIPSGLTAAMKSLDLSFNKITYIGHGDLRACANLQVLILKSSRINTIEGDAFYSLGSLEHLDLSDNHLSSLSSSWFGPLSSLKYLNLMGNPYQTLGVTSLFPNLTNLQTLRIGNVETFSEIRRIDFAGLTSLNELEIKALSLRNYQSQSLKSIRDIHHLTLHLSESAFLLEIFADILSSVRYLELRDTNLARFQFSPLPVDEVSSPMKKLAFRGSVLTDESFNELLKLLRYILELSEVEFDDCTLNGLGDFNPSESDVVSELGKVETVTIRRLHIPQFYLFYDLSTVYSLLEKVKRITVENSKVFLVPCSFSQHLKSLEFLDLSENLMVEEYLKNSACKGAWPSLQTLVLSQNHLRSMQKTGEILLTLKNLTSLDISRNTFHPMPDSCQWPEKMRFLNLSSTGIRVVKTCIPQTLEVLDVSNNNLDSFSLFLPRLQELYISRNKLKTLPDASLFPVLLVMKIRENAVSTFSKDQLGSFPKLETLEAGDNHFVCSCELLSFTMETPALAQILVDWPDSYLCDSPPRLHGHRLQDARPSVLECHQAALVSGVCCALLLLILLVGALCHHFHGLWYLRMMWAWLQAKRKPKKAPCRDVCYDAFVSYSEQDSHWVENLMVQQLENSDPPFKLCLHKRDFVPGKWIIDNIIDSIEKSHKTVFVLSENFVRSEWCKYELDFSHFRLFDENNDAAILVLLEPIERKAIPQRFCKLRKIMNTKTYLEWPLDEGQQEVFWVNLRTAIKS
Protocol: FIG. 3(A-L). Selective disruption of TLR2 and MyD88 interaction by wtTIDM. In silico analyses of interactions of wtTIDM with TLR1, TLR4, TLR5, TLR6, TLR7, and TLR9. A rigid body interaction analyses were performed in pydock in silico analysis tool. […] G) BV-2 microglial cells preincubated with WtTIDM and mTIDM peptides for 1 h were stimulated with 1 μM fibrillar Aβ1-42 under serum-free condition. After 1 h, cellular extracts were immunoprecipitated with anti-MyD88 antibody followed by western blot of immunoprecipitates for TLR2. As control, cellular extracts were immunoprecipitated with normal IgG. Input was also immunoblotted with TLR2 and MyD88. H) Bands were scanned and values (TLR2/Input) presented as relative to control (n=2 replicates/condition in 3 independent experiments). Results were analyzed by two-sample t-tests. I) BV-2 microglial cells preincubated with wtTIDM and mTIDM peptides for 1 h were stimulated with LPS under serum-free condition. After 1 h, cellular extracts were immunoprecipitated with anti-MyD88 antibody followed by western blot of immunoprecipitates for TLR4. As control, cellular extracts were immunoprecipitated with normal IgG. Input was also immunoblotted with TLR4 and My D88. […] Results were analyzed by two-sample t-tests. […] Results were analyzed by two-sample t-tests.

[3] = system: 5×FAD Tg mice; assay: Amyloid plaque / Aβ load in 5×FAD Tg mice; type: in vivo, mouse; conditions: 0.1 mg/kg body wt/2 d intranasal, 30 d
Protocol: FIG. 5 (A-Q). […] Actin was run as loading control. […] M) Hippocampal sections were immunolabeled with 82E1 mAb. […] Arrowhead indicates 4 kDa Aβ band.
FIG. 20 (A-B). Intranasal delivery of wtTIDM, but not mTIDM, peptide lowers the burden of amyloid plaques in the hippocampus of Tg mice. […] Actin was run as loading control. […] Results were analyzed by two-sample t-tests.
FIG. 21 (A-F). Intranasal delivery of wtTIDM, but not mTIDM, peptide reduces the levels of Aβ1-40 and Aβ1-42 in serum and hippocampus of Tg mice. […] After 30 d of treatment. ELISA quantification of Aβ1-40 (A, C & E) and Aβ1-42 (B, D & F) was performed in serum (A & B) and TBS (C & D) and (TBS+Triton X-100) (E & F) extracted hippocampal tissues. Six mice (n=6 per group) were used in two independent experiments. ap<0.01 & cp<0.001 versus non-Tg; bp<0.01 & dp<0.001 versus Tg by two-sample t-tests.
(§1) B6SJL-Tg (APPSwFlLon,PSEN1*M146L*L286V) 6799Vas/J transgenic (5×FAD or termed here as Tg) mice were purchased from Jackson Laboratories (Bar Harbor, ME). […] Briefly, TIDM peptides were dissolved in 5 μl normal saline, mice were hold in supine position and saline was delivered into one nostril using a pipetman.
Hippocampal tissues were homogenized in TBS, pelleted for 30 min×150,000 g. […]

[4] = system: 5×FAD Tg mice; assay: Neuronal apoptosis and plasticity-related molecules in hippocampus of 5×FAD Tg mice; type: in vivo, mouse; conditions: 0.1 mg/kg body wt/2 d intranasal, 30 d
Description: FIG. 6 (A-N). Intranasal delivery of wtTIDM, but not mTIDM, peptide inhibits neuronal apoptosis in vivo in the hippocampus and improves memory and learning in Tg mice. […] After 30 d of treatment, mice were sacrificed and hippocampal sections were double-labeled for TUNEL & NeuN (A). […] Hippocampal extracts of all groups of mice (n=4) were immunoblotted for cleaved caspase 3 (D). Actin was run as loading control. E) Bands were scanned and values (cleaved caspase 3/Actin) are presented as relative to non-Tg control. […] Protein levels of PSD-95. NR2A and GluR1 were monitored in hippocampal extracts by Western blot (F). Bands were scanned and values (G, PSD-95/Actin; H, NR2A/Actin; I, GluR1/Actin) are presented as relative to non-Tg control. […] Mice were tested for Barnes maze (J, latency; K, number of errors made) and T maze (L, number of positive turns; M, number of negative turns). Short-term memory was also monitored by novel object recognition test, which is represented by discrimination index (N). Eight mice (n=8) were used in each group and results were analyzed by one-way ANOVA.
as §1
It was performed using a commercially available kit (TdT FragEL™, Calbiochem) as described before (10, 22).

## CC[C@H](C)[C@H](NC(=O)[C@H](CCCCN)NC(=O)[C@@H](NC(=O)[C@H](CCC(N)=O)NC(=O)[C@H](CCCNC(=N)N)NC(=O)[C@@H](N)CC(=O)O)[C@@H](C)CC)C(=O)N[C@@H](Cc1c[nH]c2ccccc12)C(=O)N[C@@H](Cc1ccccc1)C(=O)N[C@@H](CCC(N)=O)C(=O)N[C@@H](CC(N)=O)C(=O)N[C@@H](CCCNC(=N)N)C(=O)N[C@@H](CCCNC(=N)N)C(=O)N[C@@H](CCSC)C(=O)N[C@@H](CCCCN)C(=O)N[C@@H](Cc1c[nH]c2ccccc12)C(=O)N[C@@H](CCCCN)C(=O)N[C@@H](CCCCN)C(=O)N1CCC[C@H]1C(=O)NCC(=O)N[C@@H](C)C(=O)N[C@@H](Cc1c[nH]cn1)C(=O)N[C@@H](CCC(N)=O)C(=O)N[C@@H](CCCCN)C(=O)O [wtTIDM, drqikiwfqnrrmkwkkPGAHQK]
[1]
  inhibition of fibrillar Aβ1-42-induced activation of NF-κB in WT primary microglia: inhibited
[2]
  inhibition of fibrillar Aβ1-42-increased association between TLR2 and MyD88: inhibited
[3]
  Aβ (plaques, Western blot, ELISA of Aβ1-40 and Aβ1-42 in serum and hippocampus): significant decrease
[4]
  PSD-95, NR2A and GluR1 proteins in the hippocampus: significant restoration
  elevated level of cleaved caspase 3 in the hippocampus: reduced
  neuronal apoptosis in the hippocampus (TUNEL & NeuN): attenuated
